Reference: US20140357512A1, “HISTONE DEACETYLASE (HDAC) BIOMARKERS IN MULTIPLE MYELOMA” (priority 2013, published 2014)

Tested on: human myeloma cell line MM.1S
Test: SILAC acetylated-lysine peptide profiling, HDAC inhibitor vs DMSO (light/heavy ratio)
Format: cell-based
From the text: An embodiment of the invention comprises utilizing the SILAC method in order to quantitate changes in protein expression between two or more populations of cells. The SILAC method is a technique based on mass spectrometry that detects differences in protein abundance among samples using non-radioactive isotopic labeling. The SILAC method is known in the art, and described in detail in Ong et al., “Stable Isotope Labeling by Amino Acids in Cell Culture, SILAC, as a Simple and Accurate Approach to Expression Proteomics”, Molecular & Cellular Proteomics, vol. 1, pp. 376-386 (2002), which is incorporated herein by reference in its entirety.
Briefly, the SILAC method involves growing two populations of cells in cell culture. The first population of cells is grown in growth media containing normal amino acids (“normal media”). The second population of cells is grown in media lacking a standard essential amino acid (such as lysine), but is then supplemented with a non-radioactive, isotopically labeled form of that essential amino acid (such as lysine labeled with ^13C atoms, rather than normal ^12C atoms), which is called “heavy media”. When the two populations of cells are each growing in the medium, they incorporate the amino acids into all of their proteins. The growth of cells maintained in the heavy media is no different from that in normal media. All peptides containing the heavy amino acids are heavier than their normal counterparts. The cells from each of the two populations of cells are lysed. The lysates from each of the two cell populations are then combined. The combined cell lysates are then analyzed by mass spectrometry. Pairs of chemically identical peptides of different stable isotope composition can be differentiated in a mass spectrometer due to their difference in mass. The ratio of peak intensities in the mass spectrum for such peptide pairs reflects the abundance ratio for the two proteins.
This example describes SILAC studies that were performed to compare the effects of three different HDAC inhibitors (Compound A, Compound B, and tubastatin A) to a control on a human multiple myeloma cell line. The HDAC inhibitors were also compared amongst themselves to determine differences in their effects.
A human myeloma cell line MM.1S was grown using either ^12C (light) or ^13C (heavy) lysine containing culture medium. The “heavy” cells were treated with DMSO as the control, and the “light” cells were treated with a single HDAC inhibitor at 37° C. for 6 hours. The heavy and light cells were lysed, and the lysates were mixed in 1:1 ratio and digested with the protease trypsin. The acetylated lysine containing peptides (due to the action of the HDAC inhibitor) in the digested peptide pool were captured by a non-specific anti-acetylated lysine antibody cocktail (the antibodies identify both light and heavy acetylated peptides), and subjected to mass spectrometry analysis in order to identify thousands of individual peptides.
Thousands of peptides were identified in pairs (^12C and ^13C) due to their known mass differences. The amino acid sequence and quantitative ratio (Light/Heavy) of a given peptide in two differentially treated cell lysates were then determined and annotated with their possible protein (gene) sources.
As stated above, three HDAC inhibitors (Compound A, Compound B, and Tubastatin A) were used. Thus, the SILAC method was performed three times, with a different HDAC inhibitor compared to a control each time. Accordingly, there are three pairs of quantitative data in the table below, i.e., Compound A:DMSO, Compound B:DMSO, and Tubastatin A:DMSO. A cut-off of 1.30 fold of change (increase or decrease) was then used to determine “changed” or “+” in the table, and any peptides with a fold of change less than 1.3 fold were determined to be “unchanged” or “0” in the table. Those peptides that were not identified were marked as “NA” in the table. […]

O=C(CCCCCCNC(=O)c1cnc(N(c2ccccc2)c2ccccc2)nc1)NO [Compound A, 2-(diphenylamino)-N-(7-(hydroxyamino)-7-oxoheptyl)pyrimidine-5-carboxamide]
light to heavy ratio (L/H ratio) of acetylated peptide FVVEK(ac)AEQQK (SEQ ID NO: 263) (Prohibitin [202], PHB, drug:DMSO): 0.42 log 2 | light to heavy ratio (L/H ratio) of acetylated peptide VYVLK(ac)FK (SEQ ID NO: 520) (Proteasomal ubiquitin receptor ADRM1 [97], gene ADRM1, inhibitor:DMSO): −0.50 log 2 | light to heavy ratio (L/H ratio) of acetylated peptide FEYK(ac)YSFK (SEQ ID NO: 340) (Protein ERGIC-53 [49], LMAN1, drug:DMSO): 0.00 log 2 | light to heavy ratio (L/H ratio) of acetylated peptide HFAFK(ac)[…] (SEQ ID NO: 554) (Protein FAM3C [72], gene FAM3C, inhibitor:DMSO): 0.40 log 2 | light to heavy ratio (L/H ratio), log 2 scale, acetylated peptide […](ac)PTK (SEQ ID NO: 804) (Protein Jade-3 [735], gene PHF16, drug:DMSO): 1.00 | light to heavy ratio (L/H ratio), log 2 scale, acetylated peptide IANILK(ac)[…] (SEQ ID NO: 803) (Protein disulfide-isomerase A4 [109], gene PDIA4, drug:DMSO): 1.00 | light to heavy ratio (L/H ratio) of acetylated peptide GYPTIK(ac)FFR (SEQ ID NO: 541) (Protein disulfide-isomerase [103], gene P4HB, inhibitor:DMSO): 0.39 log 2 | light to heavy ratio (L/H ratio) of acetylated peptide THILLFLPK(ac)SVSDYDGK (SEQ ID NO: 297) (Protein disulfide-isomerase [263], P4HB, drug:DMSO): 0.75 log 2 | light to heavy ratio (L/H ratio) of acetylated peptide VLVGK(ac)[…] (SEQ ID NO: 303) (Protein disulfide-isomerase [375], P4HB, drug:DMSO): 0.99 log 2 | light to heavy ratio (L/H ratio) of acetylated peptide […](ac)K (SEQ ID NO: 286) (Protein disulfide-isomerase [385], P4HB, drug:DMSO): 0.62 log 2 | light to heavy ratio (L/H ratio), log 2 scale, acetylated peptide VYK(ac)EMYK (SEQ ID NO: 777) (Putative annexin A2-like protein [148], gene ANXA2P2, drug:DMSO): 1.00 | light to heavy ratio (L/H ratio), log 2 scale, acetylated peptide SVPHLQK(ac)VFDR (SEQ ID NO: 776) (Putative annexin A2-like protein [227], gene ANXA2P2, drug:DMSO): 1.00 | light to heavy ratio (L/H ratio) of acetylated peptide SEVDMLK(ac)IR (SEQ ID NO: 295) (Putative annexin A2-like protein [302], ANXA2P2, drug:DMSO): 0.71 log 2 | light to heavy ratio (L/H ratio) of acetylated peptide RMELK(ac)ADQLYK (SEQ ID NO: 275) (Pyruvate dehydrogenase E1 component subunit alpha testis-specific form mitochondrial [75], PDHA2, drug:DMSO): 0.51 log 2 | L/H ratio of acetylated peptide EIDSVK(ac)[…] (SEQ ID NO: 73) (RAC2 [153], log 2 scale, drug vs DMSO): 0.00 | L/H ratio of acetylated peptide (ac)ADK(ac)[…] (SEQ ID NO: 74) (RBBP4 [4], log 2 scale, drug vs DMSO): 0.00 | L/H ratio of acetylated peptide ACFYNLDK(ac)FR (SEQ ID NO: 75) (RBM17 [391], log 2 scale, drug vs DMSO): 0.00 | L/H ratio of acetylated peptide […](ac)SIPTLISR (SEQ ID NO: 76) (RCC1 [366], log 2 scale, drug vs DMSO): 0.00 | L/H ratio of acetylated peptide FIDTTSK(ac)FGHGR (SEQ ID NO: 83) (RPL3L [373], log 2 scale, drug vs DMSO): 0.00 | L/H ratio of acetylated peptide LNILK(ac)LAPGGHVGR (SEQ ID NO: 85) (RPL4 [239], log 2 scale, drug vs DMSO): 0.00 | L/H ratio of acetylated peptide AASLK(ac)SNYNLPMHK (SEQ ID NO: 84) (RPL4 [274], log 2 scale, drug vs DMSO): 0.00 | L/H ratio of acetylated peptide NFLGEK(ac)YIR (SEQ ID NO: 86) (RPL9 [121], log 2 scale, drug vs DMSO): 0.00 | L/H ratio of acetylated peptide TGCIGAK(ac)HR (SEQ ID NO: 77) (RPL11 [154], log 2 scale, drug vs DMSO): 0.00 | L/H ratio of acetylated peptide WFQQK(ac)YDGIILPGK (SEQ ID NO: 78) (RPL11 [169], log 2 scale, drug vs DMSO): 0.00 | L/H ratio of acetylated peptide […](ac)SR (SEQ ID NO: 79) (RPL18A [41], log 2 scale, drug vs DMSO): 0.00 | L/H ratio of acetylated peptide IEHIK(ac)HSK (SEQ ID NO: 80) (RPL21, SNORD102, SNORA27, RPL21P19 [97], log 2 scale, drug vs DMSO): 0.00 | L/H ratio of acetylated peptide YLK(ac)YLTK (SEQ ID NO: 81) (RPL22 [84], log 2 scale, drug vs DMSO): 0.00 | L/H ratio of acetylated peptide INFDK(ac)YHPGYFGK (SEQ ID NO: 82) (RPL27A [47], log 2 scale, drug vs DMSO): 0.00 | L/H ratio of acetylated peptide (RPPQTIK(ac)SVR (SEQ ID NO: 492), GDP-D-glucose phosphorylase C15orf58 [113], C15orf58): −1.00 log 2 | L/H ratio of acetylated peptide LK(ac)[…] (SEQ ID NO: 89) (RPS4X [53], log 2 scale, drug vs DMSO): 0.00 | L/H ratio of acetylated peptide SFQK(ac)IQVR (SEQ ID NO: 90) (RPS7 [74], log 2 scale, drug vs DMSO): 0.00 | L/H ratio of acetylated peptide ELLTLDEK(ac)DPR (SEQ ID NO: 91) (RPS9 [66], log 2 scale, drug vs DMSO): 0.00 | L/H ratio of acetylated peptide LQTQVFK(ac)LGLAK (SEQ ID NO: 92) (RPS9 [116], log 2 scale, drug vs DMSO): 0.00 | L/H ratio of acetylated peptide […](ac)GK (SEQ ID NO: 87) (RPS23 [135], log 2 scale, drug vs DMSO): 0.00 | L/H ratio of acetylated peptide LAVLK(ac)YYK (SEQ ID NO: 88) (RPS27A [104], log 2 scale, drug vs DMSO): 0.00 | light to heavy ratio (L/H ratio) of acetylated peptide LLNK(ac)HGIK (SEQ ID NO: 528) (Ribosomal L1 domain-containing protein 1 [120], gene RSL1D1, inhibitor:DMSO): −0.43 log 2
